We go through 14 compounds from patent publication US20200361871A1 (Enterprise Therapeutics Ltd., priority 2018, published 2020).

In the experiment the target is human TMEM16A (TMEM16Aabc variant) (Homo sapiens, UniProt Q5XXA6, DEL476-501, form not given). The experiment in a line: Automated whole-cell patch clamp (Qpatch) TMEM16A potentiator assay in FRT cells stably expressing human TMEM16A. The class given is cell-based. Conditions: for % Potentiation @ 3.33 μM Avg: 3.33 μM solution of test compound, percentage increase of baseline TMEM16A current; for EC50: calculated EC50, Qpatch TMEM16A current at +70 mV. A digest of the protocol: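 Potentiation was read as the rise in peak +70 mV current over baseline (%), from cumulative 5-min additions of compound. Recordings used whole-cell automated patch of FRT cells stably carrying human TMEM16Aabc, with pipette Ca2+ buffered to give ~20% maximal current. EC50 and efficacy came from concentration-response fits.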

The structures appear in SMILES notation.

human TMEM16A (TMEM16Aabc variant), sequence (Q5XXA6 with tags, fused parts or gaps DEL476-501): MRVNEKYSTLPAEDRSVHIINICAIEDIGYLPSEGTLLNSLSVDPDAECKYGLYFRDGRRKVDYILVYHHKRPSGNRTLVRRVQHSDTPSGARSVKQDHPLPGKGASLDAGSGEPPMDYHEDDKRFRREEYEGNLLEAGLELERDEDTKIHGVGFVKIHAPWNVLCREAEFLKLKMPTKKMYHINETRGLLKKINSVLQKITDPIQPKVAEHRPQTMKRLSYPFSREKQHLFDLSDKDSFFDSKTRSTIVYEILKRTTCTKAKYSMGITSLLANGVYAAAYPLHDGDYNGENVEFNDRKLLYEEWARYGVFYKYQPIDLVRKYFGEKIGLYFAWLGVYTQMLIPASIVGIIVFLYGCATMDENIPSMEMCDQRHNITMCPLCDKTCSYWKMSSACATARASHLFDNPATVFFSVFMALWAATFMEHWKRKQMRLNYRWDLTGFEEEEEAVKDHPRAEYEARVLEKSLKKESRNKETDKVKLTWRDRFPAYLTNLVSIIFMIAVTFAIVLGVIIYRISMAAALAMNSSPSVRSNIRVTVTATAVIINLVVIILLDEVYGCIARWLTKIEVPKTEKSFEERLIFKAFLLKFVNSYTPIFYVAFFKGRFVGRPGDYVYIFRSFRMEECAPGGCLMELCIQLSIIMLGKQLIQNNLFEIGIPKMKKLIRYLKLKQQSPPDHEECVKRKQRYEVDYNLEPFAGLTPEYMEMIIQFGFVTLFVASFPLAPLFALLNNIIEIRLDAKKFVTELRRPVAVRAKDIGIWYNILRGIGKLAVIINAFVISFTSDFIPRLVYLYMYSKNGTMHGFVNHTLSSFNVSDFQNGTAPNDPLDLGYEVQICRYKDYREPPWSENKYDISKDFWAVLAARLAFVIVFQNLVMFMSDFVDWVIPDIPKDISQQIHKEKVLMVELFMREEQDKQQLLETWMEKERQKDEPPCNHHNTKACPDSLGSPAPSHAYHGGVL

For `CC(C)(C)NC(=O)c1cc(NC(=O)Cc2cc(F)cc(F)c2)ccn1` [Example 23.7, N-tert-Butyl-4-[[2-(3,5-difluorophenyl)acetyl]amino]pyridine-2-carboxamide], the “% Potentiation @ 3.33 μM Avg” value turned out to be 98%. For the compound `CC(C)(C)NC(=O)c1cc(NC(=O)Cc2cccc(F)c2F)ccn1` [Example 23.8, N-tert-Butyl-4-[[2-(2,3-difluorophenyl)acetyl]amino]pyridine-2-carboxamide], the “% Potentiation @ 3.33 μM Avg” value was found to be 122%. Consider `O=C(Cc1ccccc1Cl)Nc1ccnc(C(=O)NC2CCOCC2)c1` [Example 23.9, 4-[[2-(2-Chlorophenyl)acetyl]amino]-N-tetrahydropyran-4-yl-pyridine-2-carboxamide], for which the “% Potentiation @ 3.33 μM Avg” value was found to be 47%.

For the compound `N#CC1(NC(=O)c2cc(NC(=O)Cc3ccc4ncccc4c3)ccn2)CCC1` [Example 23.11, N-(1-Cyanocyclobutyl)-4-[[2-(6-quinolyl)acetyl]amino]pyridine-2-carboxamide], the “% Potentiation @ 3.33 μM Avg” value came to 101%. As for `CC(C)(C)NC(=O)c1cc(NC(=O)Cc2ccccc2C(F)(F)F)ccn1` [Example 23.12, N-tert-Butyl-4-[[2-[2-(trifluoromethyl)phenyl]acetyl]amino]pyridine-2-carboxamide], the “% Potentiation @ 3.33 μM Avg” value is given as 197% and the EC50 (in general, the concentration needed to bring the measured effect to its halfway point) is 330 nM. The like results for `CC(C)(C)NC(=O)c1cc(NC(=O)Cc2ccccc2Br)ccn1` [Example 23.13, 4-[[2-(2-bromophenyl)acetyl]amino]-N-tert-butyl-pyridine-2-carboxamide] were, in that order, 169% and 570 nM. As for `CC(C)(C)NC(=O)c1cc(NC(=O)Cc2ccccc2C#N)ccn1` [Example 23.14, N-tert-Butyl-4-[[2-(2-cyanophenyl)acetyl]amino]pyridine-2-carboxamide], the “% Potentiation @ 3.33 μM Avg” value came out at 33%. With `N#CC1(NC(=O)c2cc(NC(=O)Cc3ccccc3Cl)ccn2)CCOCC1` [Example 23.15, 4-[[2-(2-Chlorophenyl)acetyl]amino]-N-(4-cyanotetrahydropyran-4-yl)pyridine-2-carboxamide], the “% Potentiation @ 3.33 μM Avg” value amounted to 147% and the EC50 is 1190 nM.

With `N#CC1(NC(=O)c2cc(NC(=O)Cc3ccc4ncccc4c3)ccn2)CCOCC1` [Example 23.16, N-(4-Cyanotetrahydropyran-4-yl)-4-[[2-(6-quinolyl)acetyl]amino]pyridine-2-carboxamide], the “% Potentiation @ 3.33 μM Avg” value came to 68% and the EC50 is 1400 nM. For `COc1ccc(Cl)c(CC(=O)Nc2ccnc(C(=O)NC3(C#N)CC3)c2)c1` [Example 24, 4-[[2-(2-Chloro-5-methoxy-phenyl)acetyl]amino]-N-(1-cyanocyclopropyl)pyridine-2-carboxamide], the “% Potentiation @ 3.33 μM Avg” value was found to be 68%. As to `CC(C)(C)c1ccc(O)c(CC(=O)Nc2ccnc(C(=O)NC34CC(C3)C4)c2)c1` [Example 25, N-(3-Bicyclo[1.1.1]pentanyl)-4-[[2-(5-tert-butyl-2-hydroxy-phenyl)acetyl]amino] pyridine-2-carboxamide], the “% Potentiation @ 3.33 μM Avg” value is 330% and the EC50 was 370 nM.

For the compound `CC(C)(C)c1ccc(O)c(CC(=O)Nc2ccnc(C(=O)NC3(C#N)CCOCC3)c2)c1` [Example 25.1, 4-[[2-(5-tert-Butyl-2-hydroxy-phenyl)acetyl]amino]-N-(4-cyanotetrahydropyran-4-yl)pyridine-2-carboxamide], the “% Potentiation @ 3.33 μM Avg” value is given as 393% and the EC50 was 140 nM. As to `CC(C)(C)NC(=O)c1cc(NC(=O)Cc2cc(-c3ccccc3)ccc2O)ccn1` [Example 26, N-tert-Butyl-4-[[2-(2-hydroxy-5-phenyl-phenyl)acetyl]amino]pyridine-2-carboxamide], the “% Potentiation @ 3.33 μM Avg” value is 108%.

Take `CC(C)(C)NC(=O)c1cc(NC(=O)Cc2cc(Cl)c(CN3CCCC3)cc2O)ccn1` [Example 27, N-tert-Butyl-4-[[2-[5-chloro-2-hydroxy-4-(pyrrolidin-1-ylmethyl)phenyl]acetyl]amino]pyridine-2-carboxamide]: the “% Potentiation @ 3.33 μM Avg” value was found to be 90%.
